The values that follow come from patent publication US4988681A, “Phosphinic acid derivatives” (Banyu Pharmaceutical Co., Ltd., priority 1988, dated 1991).

For data set [1], the target named is T1, porcine kidney dehydropeptidase I (Sus scrofa, UniProt P22412).
T1 construct: Frozen porcine kidney cortex was homogenized; from tissue; host or cells: porcine kidney cortex
T1 sequence (P22412 17-409): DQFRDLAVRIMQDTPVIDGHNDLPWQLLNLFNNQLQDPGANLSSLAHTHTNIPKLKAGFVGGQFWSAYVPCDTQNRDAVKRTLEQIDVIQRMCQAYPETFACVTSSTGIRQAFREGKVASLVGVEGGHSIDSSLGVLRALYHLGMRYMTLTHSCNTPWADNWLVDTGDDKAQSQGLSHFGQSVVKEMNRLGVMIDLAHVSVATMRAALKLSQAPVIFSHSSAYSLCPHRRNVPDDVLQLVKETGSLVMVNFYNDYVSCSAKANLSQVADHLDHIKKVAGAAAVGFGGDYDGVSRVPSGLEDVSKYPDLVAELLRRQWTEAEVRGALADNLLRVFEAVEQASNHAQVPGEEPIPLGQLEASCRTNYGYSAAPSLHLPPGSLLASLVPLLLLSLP
The data set is described as follows: Inhibitory activity on porcine kidney dehydropeptidase I (DHP-I). It is filed as biochemical. The protocol: (1) Inhibitory activity on porcine kidney dehydropeptidase I
(i) Purification of porcine dehydropeptidase I
Frozen porcine kidney cortex was homogenized. Butanol (1/4 volume) pre-cooled in a dry ice-acetone bath was added to the homogenate, and the mixture was stirred at 4° C. for 43 hours. The mixture was then dialyzed for one day and centrifuged at 3,000 g for 30 minutes. To the resulting supernatant was added ammonium sulfate. A precipitate at the salt concentration range between 50 and 75% was collected to give a crude enzyme preparation which was re-dissolved in a 50 mM MOPS buffer containing 0.5 M NaCl. The solution was charged on a cilastatin affinity column. Elution with a 50 mM MOPS buffer containing 0.5 M NaCN gave a purified enzyme preparation.
(ii) Measurement of inhibitory activity
The resulting enzyme preparation (3 mU) and an inhibitor were pre-incubatedat 37° C. for 3 hours in 2.7 ml of a 50 mM MOPS buffer (pH 7.4), and then 2.475 ml of the mixture was transferred into a cuvette. As a substrate, 25 microliters of a 5 mM glycyldehydrophenylalanine solution in a 50 mM MOPS buffer (pH 7.4) was added to start an enzymic reaction. The reaction was carried out at 37° C. in a spectrophotometer fitted with a constant-emperature device, and a decrease of the absorbance at 275 nm during a period of 5 minutes was measured. […] An IC50 value was calculated from the percent inhibition data.
One unit (U) is defined as the amount of the enzyme which hydrolyzes 1 micromole of the substrate (glycyldehydrophenylalanine) per minute at a substrate concentration of 0.05 mM at 37° C. in a 50 mM MOPS buffer (pH 7.4).

Data set [2] in a line: Effect on urinary recovery of carbapenem (imipenem) in rats. It is filed as in vivo, Male SD rats. As to conditions: inhibitor 10 mg/kg iv with imipenem 10 mg/kg iv, urine up to 8 hours, n = 3. The protocol:
(2) Effect on urinary recovery of carbapenem
Male SD rats (8 week-old) were grouped, three per group. Imipenem alone was intravenously administered in a dose of 10 mg/kg to a first group. […] For comparison, a combination of imipenem (10 mg/kg) and cilastatin (10 mg/kg) was intravenously administered to a fourth group.
The urinary recovery of imipenem was calculated.

Data set [3] in a line: Pharmacokinetic evaluation: plasma concentration in rats. It is filed as in vivo, Male SD rats. As to conditions: in vivo, rat, iv 10 mg/kg (cilastatin dose not given). The procedure:
(4) Pharmacokinetic evaluations
Male SD rats ([…]) were divided into groups each consisting of three animals. […] Furthermore, cilastatin was intravenously administered to a 14th group as a control group.
Plasma samples were taken periodically from the carotid artery through a cannula inserted into it at the points of 1/12, 1/4, 1/2, 1, 2, 4, 6, 8 and 24 hours after the administration.
The area under the curve (AUC) of the plasma concentration was determined according to the trapezoidal rule.

Data set [4] deals with DHP-I. As to conditions: in words, cited from earlier work.
The mark [5] stands for this setting: DHP-I inhibitory compounds of cited literature including cilastatin.

Each structure is given as a SMILES string.

As a reminder, the IC50 is the concentration that inhibits the measured activity by half. A lower IC50 goes with inhibition by little substance. As usually defined, the AUC is the area under the concentration-time curve, a measure of exposure. A low value points to less exposure. On to `CC1(C)C[C@@H]1C(=O)N/C(=C\CCCCSC[C@H](N)C(=O)O)C(=O)O` [Cilastatin, reference compound], for which the IC50 in data set [1] was found to be 100 nM. Further, in data set [2], the “Urinary recovery of imipenem, Mean ± S.D.” value turned out to be 85.9 ± 2.9%. The compound further yielded an exposure (AUC) in data set [3] (trapezoidal rule) of 12000 ng·h/mL. For the same compound, the concentration at 0.5 h in data set [3] (1/2 h) was 5800 ng/mL. In data set [3] (1/4 h), this compound registered a concentration at 0.25 h of 18800 ng/mL. In addition, the concentration at 5 min in data set [3] (1/12 h) came to 46900 ng/mL. In addition, in data set [4] (setting [5]), the “Activity in oral administration” value was “do not show sufficient activity in oral administration” and the Duration of action result is listed as “do not always have satisfactory duration of action”. For the same compound, in data set [4] (combined use with imipenem), the “Effect on potential renal toxicity of imipenem” value was “prevent its potential renal toxicity” and the “Effect on urinary recovery of imipenem” value was “greatly improve urinary recovery of imipenem”. Besides, in data set [4], the Oral absorption entry is listed as “not orally absorbable”.
